Consider 23 compounds from patent US20020132809A1, “Heterocyclic carboxamide derivatives as inhibitors of nitric oxide production” (Fujisawa Pharmaceutical Co. Ltd., priority 1998, published 2002).

In one data set the test system is rat cardiac allograft. The experiment in a line: Protective effect of the compound (a) combined with FK506 on rat cardiac allograft. It is filed as in vivo. The settings on record: single-drug group: FK506 0.32 mg/kg, daily gastric intubation for 14 days; Lewis donor to ACI recipient heterotopic cardiac transplantation. As to the method: Test 2: Protective Effect of the Compound (a) Combined with FK 506 on Rat Cardiac Allograft
Experiments were performed on male Lewis and ACI rats weighing 175-200 g. Rats were anesthetized with sodium pentobarbital (50 mg/kg, i.p.), and underwent allogeneic (Lewis donor to ACI recipient) heterotopic intra-abdominal cardiac transplantation. Experimental groups were divided into single-drug group and combined-drug group. Single-drug dose of FK506, which was prepared in a manner similar to that disclosed in EP-0184162, was 0.32 mg/kg. Combined-drug dose was FK506 (0.32 mg/kg)+the compound (a) (10 mg/kg). The grafted hearts were monitored by daily palpation where complete rejection was defined as the cessation of palpable contractile activity. Each drug was suspended in a solution of 0.5% methylcellulose, and administered by daily gastric intubation in a volume of 5 ml/kg of body weight for 14 days.
The combination of the compound (a) and an immunosuppressive agent (FK506) was examined to determine whether it could improve rat cardiac allograft survival.

For `C=CC[C@@H]1/C=C(\C)C[C@H](C)C[C@H](OC)[C@H]2O[C@@](O)(C(=O)C(=O)N3CCCC[C@H]3C(=O)O[C@H](/C(C)=C/[C@@H]3CC[C@@H](O)[C@H](OC)C3)[C@H](C)[C@@H](O)CC1=O)[C@H](C)C[C@@H]2OC` [FK506], the “MST (day) (Median Survival Time)” value with rat cardiac allograft came to 10 days.
Consider `Cn1c(-c2ccc(-n3cnc4ccccc43)cc2)cnc1[C@H](Cc1ccccn1)N(C=O)c1cc2ccccc2o1` [Example 32, (1S)-N-[1-[5-[4-(1-Benzimidazolyl)phenyl]-1-methylimidazol-2-yl]-2-(2-pyridyl)ethyl](benzo[b]furan-2-yl)formamide], for which the melting point was 152 to 155 °C.
On the same count and under the same terms, next, `Cn1c(-c2ccc(N3CCOCC3)cc2)cnc1[C@H](Cc1ccccn1)N(C=O)c1nc2cc(Cl)ccc2s1` [Example 6, (1S)-(5-Chlorobenzothiazol-2-yl)-N-[1-[1-methyl-5-(4-morpholinophenyl)imidazol-2-yl]-2-(2-pyridyl)ethyl]formamide]: 96 to 99 °C.
On the same count and under the same terms, then `CCn1c(-c2ccc(-n3ccnc3)cc2)cnc1[C@H](Cc1ccccn1)N(C=O)c1cc2cc(C(F)(F)F)ccc2o1` [Example 29, (1S)-N-[1-[1-Ethyl-5-[4-(1-imidazolyl)phenyl]imidazol-2-yl]-2-(2-pyridyl)ethyl][5-(trifluoromethyl)benzo[b]furan-2-yl]formamide], with 85 to 89 °C; and `CCCn1c(-c2ccc(-n3ccnc3)cc2)cnc1[C@H](Cc1ccccn1)N(C=O)c1cc2cc(Cl)ccc2o1` [Example 48, (1S)-(5-Chlorobenzo[b]furan-2-yl)-N-[1-[5-[4-(1-imidazolyl)-phenyl]-1-propylimidazol-2-yl]-2-(2-pyridyl)ethyl]formamide], with 173 to 175 °C; and `Cn1c(-c2ccc(-n3ccnc3)cc2)cnc1[C@H](Cc1ccccn1)N(C=O)c1cc2cc([N+](=O)[O-])ccc2o1` [Example 50, (1S)-N-[1-[5-[4-(1-Imidazolyl)phenyl]-1-methylimidazol-2-yl]-2-(2-pyridyl)ethyl](5-nitrobenzo[b]furan-2-yl)formamide], with 221 to 223 °C.
Same read-out and setting: then `Cn1c(-c2ccc(-c3ccccn3)cc2)cnc1[C@H](Cc1ccccn1)N(C=O)c1cc2cc(Cl)ccc2o1` [Example 36, (1S)-(5-Chlorobenzo[b]furan-2-yl)-N-[1-[1-methyl-5-[4-(2-pyridyl)-phenyl]imidazol-2-yl]-2-(2-pyridyl)ethyl]formamide], with 175 to 180 °C; and `CCn1c(-c2ccc(-n3ccnc3)cc2)cnc1[C@H](Cc1ccncc1)N(C=O)c1cc2ccccc2[nH]1` [Compound (e), (1S)-N-[1-[1-ethyl-5-[4-(1-imidazolyl)phenyl]imidazol-2-yl]-2-(4-pyridyl)ethyl](indol-2-yl)formamide], with 255 to 260 °C (dec.).
In turn, `COc1ccc2oc(N(C=O)[C@@H](Cc3ccccn3)c3ncc(-c4ccc([N+](=O)[O-])cc4)n3C)cc2c1` [Compound (f), (1S)-(5-methoxybenzo[b]furan-2-yl)-N-[1-[1-methyl-5-(4-nitrophenyl)imidazol-2-yl]-2-(2-pyridyl)ethyl]formamide] gave a melting point of 210 to 211 °C.
Still for that read-out and setting: next, `Cn1ccnc1-c1ccc(-c2cnc([C@H](Cc3ccccn3)N(C=O)c3cc4ccccc4[nH]3)n2C)cc1` [Example 22, (1S)-(Indol-2-yl)-N-[1-[5-[4-(1-methylimidazol-2-yl)phenyl]-1-methylimidazol-2-yl]-2-(2-pyridyl)ethyl]formamide]: 218 to 222 °C; `Cn1c(-c2ccc(-n3ccnc3)cc2)cnc1[C@H](Cc1ccccn1)N(C=O)c1cc2cc([N+](=O)[O-])ccc2s1` [Compound (d), (1S)-N-[1-[5-[4-(1-imidazolyl)phenyl]-1-methylimidazol-2-yl]-2-(2-pyridyl)ethyl](5-nitrobenzo[b]thiophen-2-yl)formamide]: 228 to 231 °C.
Same read-out and setting: next, `Cc1nc([C@H](Cc2ccccn2)N(C=O)c2cc3ccccc3[nH]2)n(C)c1-c1ccc(-n2ccnc2)cc1` [Example 23, (1S)-N-[1-[5-[4-(1-Imidazolyl)phenyl]-1,4-dimethylimidazol-2-yl]-2-(2-pyridyl)ethyl](indol-2-yl)formamide]: 156 to 157 °C; `Cn1c(-c2ccc(-n3ccnc3)cc2)cnc1[C@H](Cc1ccccn1)N(C=O)c1cc2ccc(Cl)cc2o1` [Example 11, (1S)-(6-Chlorobenzo[b]furan-2-yl)-N-[1-[5-[4-(1-imidazolyl)-phenyl]-1-methylimidazol-2-yl]-2-(2-pyridyl)ethyl]formamide]: 165 to 169 °C; `Cc1nccn1-c1ccc(-c2cnc([C@H](Cc3ccccn3)N(C=O)c3cc4cc(Cl)ccc4o3)n2C)cc1` [Example 70, (1S)-(5-Chlorobenzo[b]furan-2-yl)-N-[1[-1-methyl-5-[4-(2-methylimidazol-1-yl)phenyl]imidazol-2-yl]-2-(2-pyridyl)ethyl]formamide]: 159 to 161 °C.
On the same count and under the same terms, next, `CCCn1c(-c2ccc(-n3ccnc3)cc2)cnc1[C@H](Cc1ccccn1)N(C=O)c1cc2cc(F)ccc2o1` [Example 56, (1S)-(5-Fluorobenzo[b]furan-2-yl)-N-[1-[5-[4-(1-imidazolyl)-phenyl]-1-propylimidazol-2-yl]-2-(2-pyridyl)ethyl]formamide]: 77 to 81 °C; `CCCn1c(-c2ccc(-n3ccnc3)cc2)cnc1[C@H](Cc1ccncc1)n1c(NC=O)cc2ccccc21` [Example 52, (1S)-N-[1-[5-[4-(1-Imidazolyl)phenyl]-1-propylimidazol-2-yl]-2-(4-pyridyl)ethyl](indol-2-yl) formamide]: 238 to 240 °C (dec.); `Cn1c(-c2ccc(-c3ccccc3)cc2)cnc1[C@H](Cc1ccccn1)N(C=O)c1cc2cc(Br)ccc2o1` [Compound (b), (1S)-N-[1-[5-(4-biphenylyl)-1-methylimidazol-2-yl]-2-(2-pyridyl)ethyl](5-bromobenzo[b]furan-2-yl)formamide]: 180.5 to 181.5 °C.
`Cn1c(-c2ccc(-n3ccnc3)cc2)cnc1[C@H](Cc1ccccn1)N(C=O)c1cc2cccc(Cl)c2o1` [Example 68, (1S)-(7-Chlorobenzo[b]furan-2-yl)-N-[1-[5-[4-(1-imidazolyl)phenyl]-1-methylimidazol-2-yl]-2-(2-pyridyl)ethyl]formamide] came in with a melting point of 182 to 184 °C.
On the same count and under the same terms, then `CCCn1c(-c2ccc(-n3ccnc3)cc2)cnc1[C@H](Cc1ccccn1)N(C=O)c1cc2cc(C(F)(F)F)ccc2o1` [Example 30, (1S)-N-[1-[5-[4-(1-Imidazolyl)phenyl]-1-propylimidazol-2-yl]-2-(2-pyridyl)ethyl][5-(trifluoromethyl)benzo[b]furan-2-yl]formamide], with 92 to 98 °C.
Consider `Cn1c(-c2ccc(-c3cccs3)cc2)cnc1[C@H](Cc1ccccn1)N(C=O)c1cc2cc(Cl)ccc2o1` [Example 17, (1S)-(5-Chlorobenzo[b]furan-2-yl)-N-[1-[1-methyl-5-[4-(2-thienyl)-phenyl]imidazol-2-yl]-2-(2-pyridyl)ethyl]formamide], for which the melting point was 110 to 114 °C.
Still for that read-out and setting: next, `Cc1nccn1-c1ccc(-c2cnc([C@H](Cc3ccccn3)N(C=O)c3cc4ccccc4[nH]3)n2C)cc1` [Example 14, (1S)-(Indol-2-yl)-N-[1-[1-methyl-5-[4-(2-methylimidazol-1-yl)-phenyl]imidazol-2-yl]-2-(2-pyridyl)ethyl]formamide]: 207 to 211 °C.
The same measure, in the same setting: then `Cn1c(-c2ccc([N+](=O)[O-])cc2)cnc1[C@H](Cc1ccccn1)N(C=O)c1cc2cc(Cl)ccc2o1` [Example 12, (1S)-(5-Chlorobenzo[b]furan-2-yl)-N-[1-[1-methyl-5-(4-nitrophenyl)imidazol-2-yl]-2-(2-pyridyl)ethyl]formamide], with 199 to 201 °C.
Still for that read-out and setting: next, `Cn1c(-c2ccc(-n3cnc4ccccc43)cc2)cnc1[C@H](Cc1ccccn1)N(C=O)c1cc2ccccc2[nH]1` [Example 31, (1S)-N-[1-[5-[4-(1-Benzimidazolyl)phenyl]-1-methylimidazol-2-yl]-2-(2-pyridyl)ethyl](indol-2-yl)formamide]: 233 to 237 °C.
